Source: ChEMBL document CHEMBL3039007, “Structure-based identification of OATP1B1/3 inhibitors” (Mol Pharmacol, 2013)

Tests used:
[1] = target: T1, Solute carrier organic anion transporter family member 1B1 (Homo sapiens, UniProt Q9Y6L6); conditions: chinese hamster, cho, 10 µM
T1 sequence (Q9Y6L6 whole entry): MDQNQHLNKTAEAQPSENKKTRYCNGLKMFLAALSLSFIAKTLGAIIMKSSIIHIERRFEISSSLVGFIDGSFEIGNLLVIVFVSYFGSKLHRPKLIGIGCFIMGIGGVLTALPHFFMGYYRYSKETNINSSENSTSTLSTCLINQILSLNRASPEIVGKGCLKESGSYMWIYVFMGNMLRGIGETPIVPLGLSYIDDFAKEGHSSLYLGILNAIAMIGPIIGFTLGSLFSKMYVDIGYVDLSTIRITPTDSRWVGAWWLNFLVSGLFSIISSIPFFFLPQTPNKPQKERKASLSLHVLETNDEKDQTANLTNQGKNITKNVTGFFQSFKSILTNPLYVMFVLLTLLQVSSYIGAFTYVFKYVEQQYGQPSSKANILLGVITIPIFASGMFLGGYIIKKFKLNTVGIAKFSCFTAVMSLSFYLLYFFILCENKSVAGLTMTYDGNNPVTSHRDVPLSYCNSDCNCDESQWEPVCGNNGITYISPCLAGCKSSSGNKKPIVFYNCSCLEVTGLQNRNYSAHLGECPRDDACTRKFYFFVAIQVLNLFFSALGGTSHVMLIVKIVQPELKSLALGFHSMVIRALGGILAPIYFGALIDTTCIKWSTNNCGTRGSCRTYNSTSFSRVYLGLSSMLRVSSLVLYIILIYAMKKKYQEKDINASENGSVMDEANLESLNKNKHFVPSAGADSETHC

[2] = target: T2, Solute carrier organic anion transporter family member 1B3 (Homo sapiens, UniProt Q9NPD5); conditions: chinese hamster, cho, 10 µM
T2 sequence (Q9NPD5 whole entry): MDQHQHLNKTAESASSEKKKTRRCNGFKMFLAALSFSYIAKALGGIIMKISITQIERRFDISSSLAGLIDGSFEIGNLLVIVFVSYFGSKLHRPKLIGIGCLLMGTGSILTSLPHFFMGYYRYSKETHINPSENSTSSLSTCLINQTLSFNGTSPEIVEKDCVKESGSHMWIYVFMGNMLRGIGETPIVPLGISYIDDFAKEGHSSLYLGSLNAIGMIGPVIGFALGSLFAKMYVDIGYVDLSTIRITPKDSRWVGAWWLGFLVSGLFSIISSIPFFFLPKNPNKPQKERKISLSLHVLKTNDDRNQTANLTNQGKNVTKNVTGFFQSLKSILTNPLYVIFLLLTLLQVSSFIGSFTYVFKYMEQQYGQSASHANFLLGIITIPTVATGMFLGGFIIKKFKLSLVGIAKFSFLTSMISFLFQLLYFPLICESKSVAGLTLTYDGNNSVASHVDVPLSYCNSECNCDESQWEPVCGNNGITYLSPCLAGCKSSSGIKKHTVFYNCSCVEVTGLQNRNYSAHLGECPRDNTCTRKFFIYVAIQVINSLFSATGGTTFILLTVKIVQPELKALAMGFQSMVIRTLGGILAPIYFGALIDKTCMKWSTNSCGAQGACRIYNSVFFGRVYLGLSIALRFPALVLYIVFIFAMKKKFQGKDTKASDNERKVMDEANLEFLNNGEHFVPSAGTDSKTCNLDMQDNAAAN

SMILES | residual activity [1] | residual activity [2]
CC1=C(/C=C/C(C)=C/C=C/C(C)=C/C=C/C=C(C)/C=C/C=C(C)/C=C/C(=O)[C@]2(C)C[C@@H](O)CC2(C)C)C(C)(C)C[C@H](O)C1 [CAPSANTHIN] | 79.45% | 102.1%
C[C@H](CS)C(=O)N1CCC[C@H]1C(=O)O [CAPTOPRIL] | 167% | 105.2%
COC(=O)C[C@H]1C(C)(C)C(=O)[C@@H]2CC3C4=CC(=O)O[C@@H](c5ccoc5)[C@]4(C)CC[C@@H]3[C@@]1(C)C2=O (some centres undefined) [CARAPIN] | 20.92% | 66.49%
C[N+](C)(C)CCOC(N)=O.[Cl-] [CARBACHOL] | 120.9% | 105.7%
COC(=O)N/N=C/c1c[n+]([O-])c2ccccc2[n+]1[O-] [CARBADOX] | 84.43% | 107.6%
NC(=O)N1c2ccccc2C=Cc2ccccc21 [CARBAMAZEPINE] | 121.6% | 99.43%
CC1(C)S[C@@H]2[C@H](NC(=O)C(C(=O)[O-])c3ccccc3)C(=O)N2[C@H]1C(=O)[O-].[Na+].[Na+] (some centres undefined) [CARBENICILLIN DISODIUM] | 108.5% | 100.7%
CC1(C)[C@@H](OC(=O)CCC(=O)[O-])CC[C@]2(C)[C@H]3C(=O)C=C4[C@@H]5C[C@@](C)(C(=O)[O-])CC[C@]5(C)CC[C@@]4(C)[C@]3(C)CC[C@@H]12.[Na+].[Na+] [CARBENOXOLONE SODIUM] | 15.44% | 14.47%
CCN(CC)CCOCCOC(=O)C1(c2ccccc2)CCCC1.O=C(O)CC(O)(CC(=O)O)C(=O)O [CARBETAPENTANE CITRATE] | 86.24% | 97.23%
C[C@@](Cc1ccc(O)c(O)c1)(NN)C(=O)O.O [CARBIDOPA] | 134.5% | 113.1%
CCOC(=O)n1ccn(C)c1=S [CARBIMAZOLE] | 114.4% | 101.8%
CN(C)CCOC(c1ccc(Cl)cc1)c1ccccn1.O=C(O)/C=C\C(=O)O (centres undefined) [CARBINOXAMINE MALEATE] | 85.11% | 96.23%
CNC(=O)Oc1cccc2c1OC(C)(C)C2 [CARBOFURAN] | 100.9% | 111.1%
CCCC(C)(COC(N)=O)COC(=O)NC(C)C (centres undefined) [CARISOPRODOL] | 106% | 103.8%
Cc1c(C(=O)O)c(O)cc2c1C(=O)c1c(O)c([C@@H]3O[C@H](CO)[C@@H](O)[C@H](O)[C@H]3O)c(O)c(O)c1C2=O [CARMINIC ACID] | 21.61% | 121.9%
CCCCCCNC(=O)n1cc(F)c(=O)[nH]c1=O [CARMOFUR] | 107% | 98.17%
NCCC(=O)N[C@@H](Cc1cnc[nH]1)C(=O)O [CARNOSINE] | 26.44% | 98.86%
CC(C(=O)O)c1ccc2c(c1)[nH]c1ccc(Cl)cc12 (centres undefined) [CARPROFEN] | 47.72% | 77.78%
CC(=O)Oc1cc(OC(C)=O)c2c(c1)O[C@H](c1ccc(OC(C)=O)c(OC(C)=O)c1)[C@@H](OC(C)=O)C2 [CATECHIN PENTAACETATE] | 82.47% | 104.9%
O=C(Oc1cc(OC(=O)c2ccccc2)c2c(c1)O[C@H](c1ccc(OC(=O)c3ccccc3)c(OC(=O)c3ccccc3)c1)[C@@H](OC(=O)c1ccccc1)C2)c1ccccc1 [CATECHIN PENTABENZOATE] | 113.2% | 118.6%
COc1cc(O)c(C(=O)c2ccccc2)cc1O [CEAROIN] | 91.48% | 120.9%

SMILES | residual activity [1] | residual activity [2]
CC1(C)C(=O)C=C[C@@]2(C)C1=C(O)C(=O)[C@]1(C)[C@@H]2CC[C@@]2(C)[C@H](c3ccoc3)C[C@H]3O[C@]321 [CEDRELONE] | 44.73% | 60.66%
C[C@@H]1CC[C@H]2C(C)(C)[C@H]3C[C@@]12CC[C@@]3(C)O [CEDROL] | 119.8% | 107.7%
CC(=O)O[C@]1(C)CC[C@@]23C[C@H]1C(C)(C)[C@@H]2CC[C@H]3C [CEDRYL ACETATE] | 134% | 116.5%
N[C@@H](C(=O)N[C@@H]1C(=O)N2C(C(=O)O)=C(Cl)CS[C@H]12)c1ccccc1 [CEFACLOR ANHYDROUS] | 84.74% | 114.4%
CC1=C(C(=O)O)N2C(=O)[C@@H](NC(=O)[C@H](N)c3ccc(O)cc3)[C@H]2SC1 [CEFADROXIL] | 88.52% | 101.2%
Cn1nnnc1SCC1=C(C(=O)[O-])N2C(=O)[C@@H](NC(=O)[C@H](OC=O)c3ccccc3)[C@H]2SC1.[Na+] [CEFAMANDOLE NAFATE] | 63% | 64.97%
Cc1nnc(SCC2=C(C(=O)[O-])N3C(=O)[C@@H](NC(=O)Cn4cnnn4)[C@H]3SC2)s1.[Na+] [CEFAZOLIN SODIUM] | 84.25% | 95.92%
CO/N=C(\C(=O)N[C@@H]1C(=O)N2C(C(=O)OCOC(=O)C(C)(C)C)=C(/C=C\c3scnc3C)CS[C@H]12)c1csc(N)n1 [CEFDITOREN PIVOXIL] | 64.03% | 82.75%
CO[C@@]1(NC(=O)CSCC#N)C(=O)N2C(C(=O)[O-])=C(CSc3nnnn3C)CS[C@@H]21.[Na+] [CEFMETAZOLE SODIUM] | 123.3% | 108.6%
CO/N=C(\C(=O)N[C@@H]1C(=O)N2C(C(=O)[O-])=C(COC(C)=O)CS[C@H]12)c1csc(N)n1.[Na+] [CEFOTAXIME SODIUM] | 104.1% | 119.2%
CO[C@@]1(NC(=O)Cc2cccs2)C(=O)N2C(C(=O)[O-])=C(COC(N)=O)CS[C@@H]21.[Na+] [CEFOXITIN SODIUM] | 68.58% | 82.79%
NC(=O)c1cc[n+](CC2=C(C(=O)[O-])N3C(=O)[C@@H](NC(=O)[C@@H](c4ccccc4)S(=O)(=O)[O-])[C@H]3SC2)cc1.[Na+] [CEFSULODIN SODIUM] | 91.84% | 101.2%
Nc1nc(/C(=C/CC(=O)O)C(=O)N[C@@H]2C(=O)N3C(C(=O)O)=CCS[C@H]23)cs1 [CEFTIBUTEN] | 90.54% | 84.47%
CO/N=C(\C(=O)N[C@@H]1C(=O)N2C(C(=O)[O-])=C(COC(N)=O)CS[C@H]12)c1ccco1.[Na+] [CEFUROXIME SODIUM] | 64.47% | 83.34%
CC1=C(O)C(=O)C=C2C1=CC=C1[C@@]2(C)CC[C@@]2(C)[C@@H]3C[C@](C)(C(=O)O)CC[C@]3(C)CC[C@]12C [CELASTROL] | 147.4% | 90.72%
Cc1ccc(-c2cc(C(F)(F)F)nn2-c2ccc(S(N)(=O)=O)cc2)cc1 [CELECOXIB] | 108.3% | 142.8%
OC[C@H]1O[C@@H](O[C@H]2[C@H](O)[C@@H](O)[C@@H](O)O[C@@H]2CO)[C@H](O)[C@@H](O)[C@@H]1O [CELLBIOSE] | 90.6% | 109.6%
CN(C)CCOC(=O)COc1ccc(Cl)cc1.Cl [CENTROPHENOXINE HYDROCHLORIDE] | 70.12% | 88.3%
CC1=C(C(=O)O)N2C(=O)[C@@H](NC(=O)[C@H](N)c3ccccc3)[C@H]2SC1 [CEPHALEXIN ANHYDROUS] | 94.03% | 89.2%
O=C(Cc1cccs1)N[C@@H]1C(=O)N2C(C(=O)[O-])=C(C[n+]3ccccc3)CS[C@H]12 [CEPHALORIDINE] | 14.22% | 31.99%
COC1=C[C@]23CCCN2CCc2cc4c(cc2[C@@H]3[C@@H]1O)OCO4 [CEPHALOTAXINE] | 77.26% | 77.89%
